Consider 2 compounds from patent US8809232B2, “Herbicidal compositions comprising 4-amino-3-chloro-5-fluoro-6-(4-chloro-2-fluoro-3-methoxyphenyl) pyridine-2-carboxylic acid or a derivative thereof and halosulfuron, pyrazosulfuron and esprocarb” (Dow Agrosciences LLC, priority 2012, dated 2014).

SMILES strings stand for the structures.

Assay [1] deals with ECHOR. In words: In-water applied herbicidal mixtures, greenhouse, transplanted paddy rice weeds. It counts as in vivo, Echinochloa oryzoides (Ard.) Fritsch. On the procedure: (§1) Weed seeds or nutlets of the desired test plant species were planted in puddled soil (mud) prepared by mixing a shredded, non-sterilized mineral soil (50.5 percent silt, 25.5 percent clay, and 24 percent sand, with a pH of about 7.6 and an organic matter content of about 2.9 percent) and water at a 1:1 volumetric ratio. The prepared mud was dispensed in 365 mL aliquots into 16-ounce (oz.) non-perforated plastic pots with a surface area of 86.59 square centimeters (cm^2) leaving a headspace of 3 centimeters (cm) in each pot Mud was allowed to dry overnight prior to planting or transplanting. Rice seeds were planted in Sun Gro MetroMix® 306 planting mixture, which typically has a pH of 6.0 to 6.8 and an organic matter content of about 30 percent, in plastic plug trays. Seedlings at the second or third leaf stage of growth were transplanted into 840 mL of mud contained in 32-oz. non-perforated plastic pots with a surface area of 86.59 cm^2 4 days prior to herbicide application. The paddy was created by filling the headspace of the pots with 2.5 to 3 cm of water. When required to ensure good germination and healthy plants, a fungicide treatment and/or other chemical or physical treatment was applied. The plants were grown for 4-22 days in a greenhouse with an approximate 14 hr photoperiod which was maintained at about 29′C during the day and 26° C. during the night. Nutrients were added as Osmocote® (19:6:12, N:P:K^+ minor nutrients) at 2 g per 16-oz. pot and 4 g per 32-oz. pot. Water was added on a regular basis to maintain the paddy flood, and supplemental lighting was provided with overhead metal halide 1000-Watt lamps as necessary. The plants were employed for testing when they reached the first through fourth true leaf stage.
(§2) Treatments consisted of the acid or esters of 4-amino-3-chloro-5-fluoro-6-(4-chloro-2-fluoro-3-methoxy-phenyl)pyridine-2-carboxylic acid (compound A) each formulated as an SC (suspension concentrate) and various herbicidal components alone and in combination. Forms of compound A were applied on an acid equivalent basis.
(§3) Other herbicidal components were applied on an active ingredient basis and included acetolactate synthase (ALS)-inhibiting herbicides formulated as Permit® 75 WDG, pyrazosulfuron-ethyl formulated as Agreen® WG or Sirius® G, and VLCFA inhibiting herbicide esprocarb (technical grade material).
(§4) Treatment requirements for each compound or herbicidal component were calculated based upon the rates being tested, the concentration of active ingredient or acid equivalent in the formulation, an application volume of 2 mL per component per pot, and an application area of 86.59 cm^2 per pot.
(§5) For formulated compounds, a measured amount was placed in an individual 100 or 200 mL glass vial and was dissolved in a volume of 1.25% (v/v) Agri-Dex® crop oil concentrate to obtain application solutions.
(§6) For technical grade compounds, a weighed amount was placed in an individual 100 to 200 mL glass vial and was dissolved in a volume of acetone to obtain concentrated stock solutions. […] The concentrated stock solutions obtained were diluted with an equivalent volume of an aqueous mixture containing 2.5% (v/v) crop oil concentrate so that the final application solutions contained 1.25% (v/v) crop oil concentrate.
(§7) Applications were made by injecting with a pipetter appropriate amounts of the application solutions, individually and sequentially, into the aqueous layer of the paddy. Control plants were treated in the same manner with the solvent blank. Applications were made so that all treated plant material received the same concentrations of acetone and crop oil concentrate.
(§8) The treated plants and control plants were placed in a greenhouse as described above and water was added as needed to maintain a paddy flood. […]

Assay [2] relates to ECHCG. The description is as above. It counts as in vivo, Echinochloa crus-galli (L.) Beauv. On the procedure: as §1, with “Water was added on a regular basis to maintain the paddy flood, and supplemental lighting was provided with overhead metal halide 1000-Watt lamps as necessary. The plants were employed for testing when they reached the first through fourth true leaf stage.” left out
as §4
(§9) For formulated compounds, a measured amount was placed in an individual 100 or 200 mL glass vial and was dissolved in a volume of 1.25% (v/v) Agri-Dex® crop oil concentrate to obtain application solutions. […]

Assay [3] has as its system ECHCO. Description: Post-emergence foliar-applied herbicidal mixtures, greenhouse, direct seeded rice weeds. It counts as in vivo, Echinochloa colona (L.) Link. An excerpt: Seeds or nutlets of the desired test plant species were planted in a soil matrix prepared by mixing a loam or sandy loam soil (e.g., 28.6 percent silt, 18.8 percent clay, and 52.6 percent sand, with a pH of about 5.8 and an organic matter content of about 1.8 percent) and calcareous grit in an 80 to 20 ratio. The soil matrix was contained in plastic pots with a volume of 1 quart and a surface area of 83.6 square centimeters (cm^2). When required to ensure good germination and healthy plants, a fungicide treatment and/or other chemical or physical treatment was applied. The plants were grown for 8-22 days in a greenhouse with an approximate 14 hr photoperiod which was maintained at about 29° C. during the day and 26° C. during the night. Nutrients (Peters Excel® 15-5-15 5-Ca 2-Mg and iron chelate) were applied in the irrigation solution as needed and water was added on a regular basis. Supplemental lighting was provided with overhead metal halide 1000-Watt lamps as necessary. The plants were employed for testing when they reached the first through fourth true leaf stage. […]
(§10) Treatment requirements were calculated based upon the rates being tested, the concentration of active ingredient or acid equivalent in the formulation, and a 12 mL application volume at a rate of 187 L/ha.
For treatments comprised of formulated compounds, measured amounts of compounds were placed individually in 25 mL glass vials and diluted in a volume of 1.25% (v/v) Agri-Dex® crop oil concentrated to obtain 12× stock solutions. […]
For treatments comprised of formulated and technical compounds, weighed amounts of the technical materials were placed individually in 25 mL glass vials and dissolved in a volume of 97:3 v/v acetone/DMSO to obtain 12× stock solutions, and measured amounts of the formulated compounds were placed individually in 25 mL glass vials and diluted in a volume of 1.5% (v/v) crop oil concentrate or water to obtain 12× stock solutions. […]

Assay [4] relates to CYPRO. In words: In-water applied herbicidal mixtures, greenhouse, transplanted paddy rice weeds. The class given is in vivo, Cyperus rotundus L. On the procedure: as §1, §2, §3, §4, §5, §6, §7, §8
In assay [5] the test system is SCPJU. The assay is described as above. It counts as in vivo, Schoenoplectus juncoides (Roxb.) Palla. On the procedure: as §1
Treatments consisted of the acid or esters of 4-amino-3-chloro-5-fluoro-6-(4-chloro-2-fluoro-3-methoxy-phenyl)pyridine-2-carboxylic acid (compound A) each formulated as an SC (suspension concentrate) and various herbicidal components alone and in combination. Forms of compound A were applied on an acid equivalent basis. […]
as §4, §9

Assay [6] concerns SCPMA. The description is as above. The class given is in vivo. On the procedure: as §1, §2, §3, §4, §5, §6, §7, §8
The subject of assay [7] is FIMMI. Described as above. It counts as in vivo, Fimbristylis miliacea (L.) Vahl. On the procedure:
as §1, §2, §3, §4, §5, §6
Applications were made by injecting with a pipetter appropriate amounts of the application solutions, individually and sequentially, into the aqueous layer of the paddy. […]

Assay [8] concerns DIGSA. In words: Post-emergence foliar-applied herbicidal mixtures, greenhouse, direct seeded rice weeds. The class given is in vivo, Digitaria sanguinalis (L.) Scop.
Description: (§11) Seeds or nutlets of the desired test plant species were planted in a soil matrix prepared by mixing a loam or sandy loam soil (e.g., 28.6 percent silt, 18.8 percent clay, and 52.6 percent sand, with a pH of about 5.8 and an organic matter content of about 1.8 percent) and calcareous grit in an 80 to 20 ratio. The soil matrix was contained in plastic pots with a volume of 1 quart and a surface area of 83.6 square centimeters (cm^2). When required to ensure good germination and healthy plants, a fungicide treatment and/or other chemical or physical treatment was applied. The plants were grown for 8-22 days in a greenhouse with an approximate 14 hr photoperiod which was maintained at about 29° C. during the day and 26° C. during the night. Nutrients (Peters Excel® 15-5-15 5-Ca 2-Mg and iron chelate) were applied in the irrigation solution as needed and water was added on a regular basis. Supplemental lighting was provided with overhead metal halide 1000-Watt lamps as necessary. The plants were employed for testing when they reached the first through fourth true leaf stage.
(§12) Treatments consisted of the acid or esters of 4-amino-3-chloro-5-fluoro-6-(4-chloro-2-fluoro-3-methoxy-phenyl)pyridine-2-carboxylic acid (Compound A), each formulated as an SC (suspension concentrate), and various herbicidal components alone and in combination. Forms of compound A were applied on an acid equivalent basis.
(§13) Other herbicidal components were applied on an active ingredient basis and included the acetolactate synthase (ALS)-inhibiting herbicides halosulfuron-methyl formulated as Permit® 75 WDG, pyrazosulfuron-ethyl formulated as Agreen® WG or Sirius® G, and the VLCFA inhibiting herbicide esprocarb (technical grade material).
as §10
(§14) For treatments comprised of formulated compounds, measured amounts of compounds were placed individually in 25 mL glass vials and diluted in a volume of 1.25% (v/v) Agri-Dex® crop oil concentrated to obtain 12× stock solutions. […] Application solutions were prepared by adding an appropriate amount of each stock solution (e.g., 1 mL) and diluted to the appropriate final concentrations with the addition of 10 mL of an aqueous mixture of 1.25% (v/v) crop oil concentrate so that the final spray solutions contained 1.25+/−0.05% (v/v) crop oil concentrate.
(§15) For treatments comprised of technical compounds, weighed amounts can be placed individually in 25 mL glass vials and dissolved in a volume of 97:3 v/v acetone/DMSO to obtain 12× stock solutions. […] Application solutions can be prepared by adding an appropriate amount of each stock solution (e.g., 1 mL) and diluted to the appropriate final concentrations with the addition of 10 mL of an aqueous mixture of 1.5% (v/v) crop oil concentrate so that the final spray solutions contain 1.25% (v/v) crop oil concentrate. When technical materials are used, the concentrated stock solutions can be added to the spray solutions so that the final acetone and DMSO concentrations of the application solutions are 16.2% and 0.5%, respectively.
(§16) For treatments comprised of formulated and technical compounds, weighed amounts of the technical materials were placed individually in 25 mL glass vials and dissolved in a volume of 97:3 v/v acetone/DMSO to obtain 12× stock solutions, and measured amounts of the formulated compounds were placed individually in 25 mL glass vials and diluted in a volume of 1.5% (v/v) crop oil concentrate or water to obtain 12× stock solutions. […] Application solutions were prepared by adding an appropriate amount of each stock solution (e.g., 1 mL) and diluted to the appropriate final concentrations with the addition of an appropriate amount of an aqueous mixture of 1.5% (v/v) crop oil concentrate so that the final spray solutions contained 1.25% (v/v) crop oil concentrate. […]

Assay [9] deals with BRAPP. The assay is described as above. It counts as in vivo. The note with it: 4.38 g ae/ha.
Description: as §11, §12, §13, §10, §14, §15, §16

In assay [10] the test system is LEFCH. The assay is described as above. The conditions noted are these: 35 g ae/ha. The class given is in vivo, Leptochloa chinensis (L.) Nees.
Description: as §11, §12, §13, §10, §14, §15, §16

For the compound `COc1c(Cl)ccc(-c2nc(C(=O)O)c(Cl)c(N)c2F)c1F` [Compound A Acid, 4-amino-3-chloro-5-fluoro-6-(4-chloro-2-fluoro-3-methoxy-phenyl)pyridine-2-carboxylic acid], the entries for the “Visual Weed Control (%) - 22 DAA ECHOR Obs” value in assay [1] (8.75 g ae/ha), in assay [1] (17.5 g ae/ha) and in assay [1] (35 g ae/ha) were 0%, 0% and 20%, respectively. Moreover, the “Visual Weed Control (%) - 20 DAA ECHOR Obs” value in [1] (42.4 g ae/ha) turned out to be 18%; in assay [1] (84.8 g ae/ha), 33%. Also, the “Visual Weed Control (%) - 21 DAA ECHCG Obs” value came out at 0% in [2] (8.75 g ae/ha) and 30% in assay [2] (17.5 g ae/ha). The “Visual Weed Control (%) - 22 DAA ECHCO Obs” value in assay [3] (4.38 g ae/ha) is given as 65%; in [3] (8.75 g ae/ha) it was 80%. For the same compound, the “Visual Weed Control (%) - 21 DAA CYPRO Obs” value in [4] (8.75 g ae/ha) amounted to 30%; in [4] (17.5 g ae/ha), 50%; in assay [4] (35 g ae/ha), 65%. Further, the results for the “Visual Weed Control (%) - 21 DAA SCPJU Obs” value in assay [5] (8.75 g ae/ha) and in assay [5] (17.5 g ae/ha) were 40% and 60%, respectively. The “Visual Weed Control (%) - 22 DAA SCPMA Obs” value in assay [6] (8.75 g ae/ha), in [6] (17.5 g ae/ha) and in assay [6] (35 g ae/ha) was 0% each time. The “Visual Weed Control (%) - 20 DAA SCPMA Obs” value in assay [6] (42.4 g ae/ha) and in [6] (84.8 g ae/ha) was 0% each time. The “Visual Weed Control (%) - 21 DAA FIMMI Obs” value amounted to 0% in assay [7] (8.75 g ae/ha) and 95% in assay [7] (17.5 g ae/ha). For the same compound, the “Visual Weed Control (%) - 20 DAA DIGSA Obs” value in assay [8] (21.2 g ae/ha) was determined as 10%; in assay [8] (42.4 g ae/ha) it was 25%. Further, the “Visual Weed Control (%) - 20 DAA BRAPP Obs” value in assay [9] was found to be 50%. The “Visual Weed Control (%) - 22 DAA BRAPP Obs” value in assay [9] was determined as 45%.
Regarding `CCCCOC(=O)c1nc(-c2ccc(Cl)c(OC)c2F)c(F)c(N)c1Cl` [Compound A n-Butyl Ester], the “Visual Weed Control (%) - 20 DAA ECHOR Obs” value in assay [1] (35 g ae/ha) was found to be 35%; in assay [1] (70 g ae/ha), 40%. Also, the “Visual Weed Control (%) - 20 DAA SCPMA Obs” value in [6] (35 g ae/ha) and in assay [6] (70 g ae/ha) was 0% in each case. Moreover, the “Visual Weed Control (%) - 20 DAA DIGSA Obs” value in assay [8] (17.5 g ae/ha) was 13%. In assay [10], the “Visual Weed Control (%) - 20 DAA LEFCH Obs” value is on record as 48%.
